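Five concentrations, 48 hours, 96-well plates. TGI: concentration producing complete growth inhibition.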

Some test systems named below: A549 NSCLC; HCT-15 colon; HL-60(TB) leukemia; MALME-3M melanoma; MOLT-4 leukemia; NCI-H522 lung; OVCAR-3 ovarian; RPMI-8226 leukemia; SF-539 CNS; SW-620 colon; U251 CNS; UACC-257 melanoma; EKVX NSCLC; HCC-2998 colon; A498 renal; MDA-MB-231 breast.
What all share (test): DTP human tumour cell line panel, 48 h

Turning to `COc1ccc(C(C#N)NNc2nc(C)cc(=O)[nH]2)cc1OC` (configuration not stated), the TGI with A549 NSCLC, with HCT-15 colon, in the test on HL-60(TB) leukemia, with MALME-3M melanoma, in the test on MOLT-4 leukemia and in the test with NCI-H522 lung was more than 100 µM throughout. Also, the TGI in the test with OVCAR-3 ovarian, in the test on RPMI-8226 leukemia, with SF-539 CNS, with SW-620 colon, in the test with U251 CNS and in the test with UACC-257 melanoma was more than 100 µM throughout.
As for `Cc1cn(Cc2ccccc2CCl)c(=O)[nH]c1=O`, the TGI with A549 NSCLC worked out at 36.6 µM; with EKVX NSCLC, 33.2 µM; with HCC-2998 colon, 28.8 µM; in the test on HCT-15 colon it was 31.7 µM; with HL-60(TB) leukemia, 14.8 µM; in the test with MALME-3M melanoma it was 57 µM. Moreover, the TGI in the test with MOLT-4 leukemia was more than 100 µM; with NCI-H522 lung it was 23.9 µM; with OVCAR-3 ovarian, 12.6 µM; with SF-539 CNS, 24.6 µM; in the test with SW-620 colon, 34.1 µM; in the test on U251 CNS, 21.4 µM. The compound also had a TGI in the test on UACC-257 melanoma of 31.1 µM.
For the compound `O=C(CC(C(=O)c1ccoc1)c1ccco1)c1ccco1` (configuration not stated), the TGI in the test with A498 renal, with A549 NSCLC, in the test with EKVX NSCLC, with HCC-2998 colon, in the test on HCT-15 colon and in the test on HL-60(TB) leukemia was more than 100 µM in each case. For the same compound, the TGI in the test with MDA-MB-231 breast, in the test on MOLT-4 leukemia, with NCI-H522 lung, in the test on OVCAR-3 ovarian, in the test with RPMI-8226 leukemia and in the test with SF-539 CNS was more than 100 µM throughout. For the same compound, the concentration for total growth inhibition (TGI) with SW-620 colon, in the test on U251 CNS and with UACC-257 melanoma was more than 100 µM throughout.
On to `O[C@@H]1C[C@@H]2N[C@@](O)(C[C@@H]2O)[C@H]1O`, for which the TGI in the test on A498 renal, in the test with A549 NSCLC, with EKVX NSCLC, in the test with HCC-2998 colon, with HCT-15 colon and with HL-60(TB) leukemia was more than 100 µM in each case. Besides, the concentration for total growth inhibition (TGI) with MALME-3M melanoma, in the test with MDA-MB-231 breast, in the test on MOLT-4 leukemia, with NCI-H522 lung, in the test on OVCAR-3 ovarian and in the test with RPMI-8226 leukemia was more than 100 µM each time. Moreover, the total growth inhibition concentration (TGI) in the test on SF-539 CNS, with SW-620 colon, in the test on U251 CNS and in the test on UACC-257 melanoma was more than 100 µM each time.
On to `CN=S(=O)(c1ccccc1)c1ccccc1`, for which the total growth inhibition concentration (TGI) in the test on A498 renal, in the test on A549 NSCLC, in the test with EKVX NSCLC, in the test on HCC-2998 colon, with HCT-15 colon and in the test on HL-60(TB) leukemia was more than 100 µM throughout. Moreover, the TGI in the test on MALME-3M melanoma, in the test on MOLT-4 leukemia, in the test on NCI-H522 lung, in the test with OVCAR-3 ovarian, with RPMI-8226 leukemia and in the test with SF-539 CNS was more than 100 µM each time. Also, the TGI in the test with SW-620 colon, in the test with U251 CNS and in the test on UACC-257 melanoma was more than 100 µM throughout.
For `C[C@H](O)C1CC(Cn2nnc3c(N)ncnc32)C1(C)C` (some centres not stated), the TGI with A498 renal, in the test on A549 NSCLC, in the test on EKVX NSCLC, in the test on HCC-2998 colon, in the test on HCT-15 colon and in the test on MDA-MB-231 breast was more than 100 µM in each case. The concentration for total growth inhibition (TGI) in the test with OVCAR-3 ovarian, in the test on SF-539 CNS, with SW-620 colon, with U251 CNS and in the test on UACC-257 melanoma was more than 100 µM each time.
With `COC(=O)C1C2C=CC(C2)N1[C@@H](C)c1ccccc1` (some centres not stated), the total growth inhibition concentration (TGI) in the test with A498 renal, in the test with A549 NSCLC, in the test on EKVX NSCLC, with HCC-2998 colon, with HCT-15 colon and in the test with HL-60(TB) leukemia was more than 100 µM throughout. In addition, the concentration for total growth inhibition (TGI) in the test on MALME-3M melanoma, in the test with NCI-H522 lung, in the test with OVCAR-3 ovarian, in the test on RPMI-8226 leukemia, with SF-539 CNS and in the test on SW-620 colon was more than 100 µM throughout. The concentration for total growth inhibition (TGI) in the test with U251 CNS and in the test on UACC-257 melanoma was more than 100 µM throughout.
Regarding `CC(=O)OC1c2ccccc2CCCCCCC12OCCO2` (configuration not stated), the TGI with A498 renal, with A549 NSCLC, in the test on HCC-2998 colon, with HCT-15 colon, in the test with HL-60(TB) leukemia and in the test with MALME-3M melanoma was more than 100 µM in each case. The TGI with MOLT-4 leukemia, with NCI-H522 lung, in the test on OVCAR-3 ovarian, in the test on RPMI-8226 leukemia, in the test with SF-539 CNS and with SW-620 colon was more than 100 µM in each case. Moreover, the concentration for total growth inhibition (TGI) with U251 CNS and with UACC-257 melanoma was more than 100 µM throughout.
Take `CC(=O)NC1=C(C)C(=O)c2c(nc3n2CCC3O)C1=N` (configuration not stated): the concentration for total growth inhibition (TGI) was 59.6 µM in the test with A498 renal; more than 100 µM in the test on A549 NSCLC; 37 µM with EKVX NSCLC; 45.7 µM with HCC-2998 colon; 41.1 µM in the test with HCT-15 colon; more than 100 µM with HL-60(TB) leukemia. Also, the TGI is 18.8 µM with MALME-3M melanoma; more than 100 µM in the test on MOLT-4 leukemia; 19.6 µM in the test on NCI-H522 lung; 11.1 µM in the test with OVCAR-3 ovarian; more than 100 µM in the test on RPMI-8226 leukemia; 13.9 µM in the test with SF-539 CNS. Besides, the values for the total growth inhibition concentration (TGI) in the test with SW-620 colon, with U251 CNS and with UACC-257 melanoma were 26.4 µM, 26.9 µM and 13.2 µM, respectively.
With `CC1(C)Oc2ccc3c(=O)cc(-c4ccc(F)cc4)oc3c2C1C(=O)O` (configuration not stated), the concentration for total growth inhibition (TGI) with A498 renal, in the test with A549 NSCLC, in the test with EKVX NSCLC, in the test on HCC-2998 colon, in the test with MALME-3M melanoma and in the test with MDA-MB-231 breast was more than 100 µM throughout. Also, the concentration for total growth inhibition (TGI) with MOLT-4 leukemia, in the test with NCI-H522 lung, in the test with OVCAR-3 ovarian, with SF-539 CNS, in the test with U251 CNS and in the test on UACC-257 melanoma was more than 100 µM in each case.
